Like-named read-outs stand apart in the source and are kept apart here.
Experiments:
[1] = system: Key Broadleaf Weed and Crop Species; assay: Post-emergent Test II herbicidal activity (Table 5); type: in vivo; details: post-emergence, 336 h, 14 days after application; for pest or weed control at 70 g/ha: application rate 70 g ai/ha; for pest or weed control at 140 g/ha: application rate 140 g ai/ha
How it was run: (§1)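 Visual injury ratings (0 = no injury, 100 = complete kill) were taken 14 d after treatment, relative to untreated plants. Seedlings at the first–second true leaf stage received overhead spray at 187 L/ha; the highest rate was serially diluted to ½×, ¼×, ⅛× and 1/16×.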

[2] = system: Key Grass and Sedge Weeds as well as Grass Crops; assay: Post-emergent Test II herbicidal activity (Table 6); type: in vivo; details: post-emergence, 336 h; for pest or weed control at 70 g/ha: 70 g ai/ha; for pest or weed control at 140 g/ha: 140 g ai/ha
How it was run: as §1

[3] = ABUTH: velvetleaf (Abutilon theophrasti), read-out: Visual Growth Reduction (%) 14 Days After Application, ABUTH
[4] = AMARE: redroot pigweed (Amaranthus retroflexus), read-out: Visual Growth Reduction (%) 14 Days After Application, AMARE
[5] = BRSNN: oilseed-rape, canola (Brassica napus), read-out: Visual Growth Reduction (%) 14 Days After Application, BRSNN
[6] = CHEAL: lambsquarters (Chenopodium album), read-out: Visual Growth Reduction (%) 14 Days After Application, CHEAL
[7] = EPHHL: wild poinsettia (Euphorbia heterophylla), read-out: Visual Growth Reduction (%) 14 Days After Application, EPHHL
[8] = HELAN: sunflower (Helianthus annuus), read-out: Visual Growth Reduction (%) 14 Days After Application, HELAN
[9] = VIOTR: wild pansy (Viola tricolor), read-out: Visual Growth Reduction (%) 14 Days After Application, VIOTR
[10] = CYPES: yellow nutsedge (Cyperus esculentus), read-out: Visual Growth Reduction (%) 14 Days After Application, CYPES
[11] = DIGSA: crabgrass (Digitaria sanguinalis), read-out: Visual Growth Reduction (%) 14 Days After Application, DIGSA
[12] = ECHCG: barnyardgrass (Echinochloa crus-galli), read-out: Visual Growth Reduction (%) 14 Days After Application, ECHCG
[13] = ORYSA: rice (Oryza sativa), crop, read-out: Visual Growth Reduction (%) 14 Days After Application, ORYSA
[14] = SETFA: giant foxtail (Setaria faberi), read-out: Visual Growth Reduction (%) 14 Days After Application, SETFA
[15] = SORVU: grain sorghum (Sorghum vulgare), read-out: Visual Growth Reduction (%) 14 Days After Application, SORVU
[16] = TRZSS (wheat, Triticum aestivum), crop, read-out: Visual Growth Reduction (%) 14 Days After Application, TRZSS
[17] = ZEAMX: maize, corn (Zea mays), crop, read-out: Visual Growth Reduction (%) 14 Days After Application, ZEAMX

For `COC(=O)c1nc(-c2ccc(OC(F)F)cc2)nc(N)c1OC` [Compound 106, methyl 6-amino-2-(4-(difluoromethoxy)phenyl)-5-methoxypyrimidine-4-carboxylate], the pest or weed control at 70 g/ha [1, 3] was 0 to 29%, the pest or weed control at 140 g/ha [1, 3] was 0 to 29% and the pest or weed control at 70 g/ha [1, 4] was 0 to 29%. It also gave a pest or weed control at 140 g/ha [1, 4] of 0 to 29%, a pest or weed control at 70 g/ha [1, 5] of 0 to 29% and a pest or weed control at 140 g/ha [1, 5] of 0 to 29%. For the same molecule, the pest or weed control at 70 g/ha [1, 6] was 0 to 29%, the pest or weed control at 140 g/ha [1, 6] was 0 to 29% and the pest or weed control at 70 g/ha [1, 7] was 0 to 29%. The pest or weed control at 140 g/ha [1, 7] was 0 to 29%, the pest or weed control at 70 g/ha [1, 8] was 0 to 29% and the pest or weed control at 140 g/ha [1, 8] was 0 to 29%. For the same molecule, the pest or weed control at 70 g/ha [1, 9] was 0 to 29%, the pest or weed control at 140 g/ha [1, 9] was 0 to 29% and the pest or weed control at 70 g/ha [2, 10] was 0 to 29%. It also gave a pest or weed control at 140 g/ha [2, 10] of 0 to 29%, a pest or weed control at 70 g/ha [2, 11] of 0 to 29% and a pest or weed control at 140 g/ha [2, 11] of 0 to 29%. It also gave a pest or weed control at 70 g/ha [2, 12] of 0 to 29%, a pest or weed control at 140 g/ha [2, 12] of 0 to 29% and a pest or weed control at 70 g/ha [2, 13] of 0 to 29%. It also gave a pest or weed control at 140 g/ha [2, 13] of 0 to 29%, a pest or weed control at 70 g/ha [2, 14] of 0 to 29% and a pest or weed control at 140 g/ha [2, 14] of 0 to 29%. It also gave a pest or weed control at 70 g/ha [2, 15] of 0 to 29%, a pest or weed control at 140 g/ha [2, 15] of 0 to 29% and a pest or weed control at 70 g/ha [2, 16] of 0 to 29%. For the same molecule, the pest or weed control at 140 g/ha [2, 16] was 0 to 29%, the pest or weed control at 70 g/ha [2, 17] was 0 to 29% and the pest or weed control at 140 g/ha [2, 17] was 0 to 29%. The melting point was 183 to 184 °C.

Reference: patent US9113629B2, “4-amino-6-(4-substituted-phenyl)-picolinates and 6-amino-2-(4-substituted-phenyl)-pyrimidine-4-carboxylates and their use as herbicides” (DOW AGROSCIENCES LLC, priority 2013, dated 2015)
